Converted amounts (≈) assume the structure as drawn. Like-named read-outs stand apart in the source and are kept apart here.
Columns and labels:
Type in all cases: cell-based
[1] = system: Mycobacterium tuberculosis strain H37Rv; assay: Mycobacterial growth inhibition assay (colorimetric MTT micro assay, MIC)
[2] = Cytotoxicity evaluation on HCT-116 cell line (SRB); conditions: human, HCT-116 cells, 72 hours treatment, read-out: Anti-HCT116 CC50
Method: (§1) The biological activity of the compounds of the present invention were evaluated. The activity against mycobacteria (Mtb) was assessed by minimum inhibitory concentration values (MIC, µM) determination. The selectivity index (SI) is defined as: SI = (CC50)/(MIC) [formula] wherein CC50 refers to the half maximal cytotoxic concentration of compounds towards particular eukaryotic cells, either for HCT116 cells and/or VERO cells; MIC refers to the minimum inhibitory concentration of the compounds towards mycobacteria.
Human HCT-116 colon cancer cells were seeded in 96-well plates (2500 cells/well) 24 hours before being treated for 72 hours with the tested compounds. Cells were grown and treated in DMEM 10% FBS. For each compound, 11 concentrations, corresponding to twofold serial dilutions from the maximum concentration, were evaluated, with each concentration tested in duplicate. DMSO was set at 0.5% final concentration in each well, including in the untreated conditions. At the end of the treatment, cells were fixed 1 hour at 4°C by addition of cold 10 % trichloroacetic acid to a final 3.33 % concentration, then washed 4 times with water. The plates were dried and the cells stained for 30 minutes with 0.057 % (wt/vol) Sulforhodamine B (SRB) in 1% acetic acid, then washed 4 times with 1% acetic acid and dried. The dye was resuspended by a 1 h 30 incubation in 200 µL of 10 mM Tris-base and the absorbance at 490 nm measured with a plate reader (µquant, Bio-tek). For normalization, the background value was subtracted to each value, the duplicates averaged and the untreated condition set to 100% cell viability. CC50 were computed from at least three independent experiments using the GraphPad Prism software using a non-linear regression to a four-parameter logistic curve (log[inhibitor] vs response; variable slope).

[3] = Cytotoxicity evaluation on Vero cell line (MTT); conditions: Vero cells, read-out: Anti-VERO CC50
Method: as §1
Cytotoxicity evaluation of the tested molecules by MTT assay was performed on the Vero cell line. Briefly, cells (5.10^4 cells/mL) in 100 µL of complete medium [MEM supplemented with 10% fetal calf serum (FCS), 2 mM L-glutamine and antibiotics (100U/mL penicillin and 100 µg/mL streptomycin)] were seeded into each well of 96-well plates and incubated at 37 °C in a humidified 5% CO2 with 95% air atmosphere. After a 24 h incubation, 100 µL of medium with various product concentrations and appropriate controls were added and the plates were incubated for 72 h at 37 °C. Each plate-well was then microscope-examined for detecting possible precipitate formation before the medium was aspirated from the wells. 100 µL of MTT solution (0.5 mg/mL in complete MEM) were then added to each well. Cells were incubated for 1 h at 37 °C and the MTT solution was then removed, and DMSO (100 µL/well) was added to dissolve the resulting formazan crystals. Plates were shaken vigorously (300 rpm) for 5 min. The absorbance was measured at 570 nm with a microplate spectrophotometer (BIOTEK Eon). DMSO was used as blank and SDS as positive control. CC50 were calculated by non-linear regression analysis processed on dose-response curves, using TableCurve 2D V5 software.

[4] = system: M. abscessus; assay: Antibacterial activity MIC, M. abscessus; conditions: Mycobacteroides abscessus
[5] = system: E. coli; assay: Antibacterial activity MIC, E. coli; conditions: Escherichia coli
[6] = system: C. glutamicum; assay: Antibacterial activity MIC, C. glutamicum; conditions: Corynebacterium glutamicum
[7] = system: M. smegmatis; assay: Antibacterial activity MIC, M. smegmatis; conditions: Mycolicibacterium smegmatis
[8] = system: M. kansasii; assay: Antibacterial activity MIC, M. kansasii; conditions: Mycobacterium kansasii
[9] = M. tuberculosis (Table 4), read-out: Antibacterial activity MIC M. tuberculosis
[10] = M. tuberculosis H37Rv, 7H9 broth, 6 days incubation then MTT 24 h, read-out: Anti-Mtb MIC
[11] = read-out: Antibacterial activity MIC M. tuberculosis

Which results are given for CCCCCCCCCCCC(O)C#CCO (racemic) [Compound 1, Pentadec-2-yne-1,4-diol]?
MIC [1, 9]: 1.25 µM (≈ 0.3 µg/mL); MIC [1, 10]: 1.25 µM (≈ 0.3 µg/mL); CC50 at 72 h ([2]; HCT-116 colon cancer cells): 60 µM; CC50 at 72 h ([3]; African green monkey): 89 µM; MIC [4]: 2.5 µM (≈ 0.601 µg/mL)

For CCCCCCCCCCC[C@@H](O)C#CCO [(R)-1, (R)-Pentadec-2-yne-1,4-diol], which MIC [1, 10] is on record?
The MIC was 1.25 µM (≈ 0.3 µg/mL).

With C=C=C[C@@H](O)C#CCCCCCCCCCCCC [(R)-19] as the molecule, how does the MIC [1, 11] read?
The MIC was 2.5 µM (≈ 0.656 µg/mL).

And the MIC [5]?
Its MIC is greater than 10 µM.

What about the MIC [6] of the same molecule?
Its MIC is greater than 10 µM.

And the MIC [7]?
The MIC was 10 µM (≈ 2.62 µg/mL).

And the MIC [8]?
The MIC was 5 µM (≈ 1.31 µg/mL).

For CCCCCCCCCCC[C@@H](O)C#C[C@H](O)CC [(R,R)-6, (3R,6R)-heptadec-4-yne-3,6-diol], which MIC [1, 10] is on record?
The MIC was 2.5 µM (≈ 0.671 µg/mL).

Which MIC [1, 10] does the source give for CCCCCCCCCCC[C@H](O)C#C[C@H](O)CC [(R,S)-6, (3R,6S)-heptadec-4-yne-3,6-diol] here?
The MIC was 2.5 µM (≈ 0.671 µg/mL).

For CCCCCCCCCCC[C@H](O)C#CCO [(S)-1, (S)-Pentadec-2-yne-1,4-diol], which MIC [1, 10] is on record?
Its MIC is 1.25 µM (≈ 0.3 µg/mL).

Which results are given for C=C=C[C@H](O)C#CCCCCCCCCCCCC [(S)-19]?
MIC [1, 11]: 2.5 µM (≈ 0.656 µg/mL); MIC [5]: > 10 µM; MIC [6]: > 10 µM; MIC [7]: 10 µM (≈ 2.62 µg/mL); MIC [8]: 2.5 µM (≈ 0.656 µg/mL)

With C#C[C@H](O)C#CCCCCCCCCCCCC [(S)-20] as the molecule, how does the MIC [1, 11] read?
The MIC was 1.2 µM (≈ 0.298 µg/mL).

What about the MIC [5] of the same molecule?
The MIC was greater than 10 µM.

And the MIC [6]?
Its MIC is 10 µM (≈ 2.48 µg/mL).

And the MIC [7]?
The MIC was 2.5 µM (≈ 0.621 µg/mL).

What about the MIC [8] of the same molecule?
The MIC was 1.2 µM (≈ 0.298 µg/mL).

For CCCCCCCCCCC[C@@H](O)C#C[C@@H](O)CC [(S,R)-6, (3S,6R)-heptadec-4-yne-3,6-diol], which MIC [1, 10] is on record?
Its MIC is 2.5 µM (≈ 0.671 µg/mL).

For CCCCCCCCCCC[C@H](O)C#C[C@@H](O)CC [(S,S)-6, (3S,6S)-heptadec-4-yne-3,6-diol], which MIC [1, 10] is on record?
Its MIC is 2.5 µM (≈ 0.671 µg/mL).

What does the source list for CCCCCCCCCCCCC#CCO [Comparative example A, reference compound]?
MIC [1, 9]: 5 µM (≈ 1.12 µg/mL); MIC [1, 10]: 5 µM (≈ 1.12 µg/mL); CC50 at 72 h [2]: 120 µM; CC50 at 72 h ([3]; monkey): 187 µM; MIC [4]: 20 µM (≈ 4.49 µg/mL)

For C=CC(O)C#CC(O)CCCCCCCCCCC (stereo not shown) [Compound 2, Heptadec-1-en-4-yne-3,6-diol], which MIC ([1]; read-out: Anti-Mtb MIC) is on record?
The MIC was 1.25 µM (≈ 0.333 µg/mL).

And the CC50 at 72 h ([2]; HCT-116 colon cancer cells)?
The CC50 at 72 h was 2 µM.

And the CC50 at 72 h ([3]; African green monkey)?
Its CC50 at 72 h is 7.6 µM.

Which MIC ([1]; read-out: Anti-Mtb MIC) does the source give for C=C=CC(O)C#CC(O)CCCCCCCCCCC (stereo not shown) [Compound 3, Octadeca-1,2-dien-5-yne-4,7-diol] here?
Its MIC is 2.5 µM (≈ 0.696 µg/mL).

And the CC50 at 72 h ([2]; HCT-116 colon cancer cells)?
The CC50 at 72 h was 9 µM.

What about the CC50 at 72 h ([3]; African green monkey) of the same molecule?
The CC50 at 72 h was 8 µM.

What does the source list for C#CC(O)C#CC(O)CCCCCCCCCCC (stereo not shown) [Compound 4, Heptadeca-1,4-diyne-3,6-diol]?
MIC ([1]; read-out: Anti-Mtb MIC): 0.3 µM (≈ 0.0793 µg/mL); CC50 at 72 h ([2]; HCT-116 colon cancer cells): 4 µM; CC50 at 72 h ([3]; African green monkey): 2.5 µM

What does the source list for CCCCCCCCCCCC(O)C#CC(O)c1ccccc1 (stereo not shown) [Compound 5, 1-Phenylpentadec-2-yne-1,4-diol]?
MIC [1, 10]: 1.25 µM (≈ 0.396 µg/mL); CC50 at 72 h ([2]; HCT-116 colon cancer cells): 50 µM; CC50 at 72 h ([3]; African green monkey): 46.5 µM

Which MIC [1, 9] does the source give for CCCCCCCCCCCC(O)C#CC(O)CC (stereo not shown) [Compound 6, Heptadec-4-yne-3,6-diol] here?
The MIC was 2.5 µM (≈ 0.671 µg/mL).

And the MIC [1, 10]?
The MIC was 2.5 µM (≈ 0.671 µg/mL).

And the CC50 at 72 h ([2]; HCT-116 colon cancer cells)?
The CC50 at 72 h was 40 µM.

And the CC50 at 72 h ([3]; African green monkey)?
The CC50 at 72 h was 43.2 µM.

And the MIC [4]?
The MIC was 10 µM (≈ 2.68 µg/mL).

With CCCCCCCCCCCC(O)C#CC(O)C1CC1 (stereo not shown) [Compound 7, 1-Cyclopropylpentadec-2-yne-1,4-diol] as the molecule, how does the MIC [1, 10] read?
Its MIC is 0.3 µM (≈ 0.0841 µg/mL).

And the CC50 at 72 h ([2]; HCT-116 colon cancer cells)?
Its CC50 at 72 h is 50 µM.

What about the CC50 at 72 h ([3]; African green monkey) of the same molecule?
The CC50 at 72 h was 43.9 µM.

Which results are given for CCCCCCCCCCCC(O)C#CC(O)C(C)(C)C (stereo not shown) [Compound 8, 2,2-Dimethylheptadec-4-yne-3,6-diol]?
MIC [1, 10]: 5 µM (≈ 1.48 µg/mL); CC50 at 72 h ([2]; HCT-116 colon cancer cells): 20 µM

For CCCCCCCCCCCC(O)C#CC(O)C(CC)CC (stereo not shown) [Compound 9, 3-Ethyloctadec-5-yne-4,7-diol], which MIC [1, 10] is on record?
Its MIC is 5 µM (≈ 1.55 µg/mL).

And the CC50 at 72 h ([2]; HCT-116 colon cancer cells)?
The CC50 at 72 h was 20 µM.

— patent EP4613730A1, “LIPIDIC ALKYNYLCARBINOLS WITH ANTI-BACTERIAL AND ANTI-TUBERCULOSIS ACTIVITY” (priority 2024, dated 2025)
